The results in this text go back to patent publication US11596611B2, “Hepatitis B antiviral agents” (ENANTA PHARMACEUTICALS, INC., priority 2017, dated 2023).

Where only a bound is given, the exact number is not on record here.

One experiment concerns HBV. The experiment can be described thus: HepAD38 antiviral assay: reduction of viral product accumulation (virion DNA by qPCR, HBsAg or HBeAg by ELISA). It counts as cell-based, hepatitis B virus. The note with it: Hepatitis B virus, 120 h; HepAD38 cells, five days after compound addition; 50% reduction of viral product vs no drug controls; read-out: HepAD38 EC50. A digest of the protocol: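 Tetracycline-free HepAD38 cells exposed to compound (DMSO stock diluted 1:200) for 5 days, or 8 days with media and compound refreshed on d2 and d5. Virion DNA quantified by qPCR after lysis; HBsAg or HBeAg measured by ELISA on diluted samples.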
As for `O=C(Nc1ccc(F)c(F)c1)c1ccc(Cl)c(S(=O)(=O)C2CC(O)(CO)C2)c1` (stereo not shown) [Example 220], the EC50 is more than 0.2 µM. `Cc1cccc([C@H](O)[C@@]2(O)C3CC[C@H]2C[C@H](S(=O)(=O)c2cc(C(=O)Nc4ccc(F)c(F)c4)ccc2Cl)C3)n1` [Example 294a]: the EC50 was less than 0.104 µM. Consider `O=C(Nc1ccc(F)c(F)c1)c1ccc(Cl)c(S(=O)(=O)CC2CCC3(CC2)OCCO3)c1` [Example 216], for which the EC50 lay in the range of 0.1 to 0.2 µM. The same measure, in the same setting: under `COC(=O)N1CC(=O)C[C@H]1C(=O)NC[C@]1(O)C2CCC1C[C@@H](S(=O)(=O)c1cc(C(=O)Nc3cc(F)c(F)c(F)c3)ccc1Cl)C2` [Example 74] stands 0.1 to 0.2 µM. Still for that read-out and setting: under `COC(=O)N1CC[C@H](O)[C@H]1C(=O)NC[C@@]1(O)C2CC[C@H]1C[C@H](S(=O)(=O)c1cc(C(=O)Nc3cc(F)c(F)c(F)c3)ccc1Cl)C2` [Example 79] stands more than 0.2 µM; under `CCC1(O)CC(S(=O)(=O)c2cc(C(=O)Nc3ccc(F)c(F)c3)ccc2Cl)C1` (stereo not shown) [Example 233], more than 0.2 µM; under `CC(C)(O)CNC(=O)C[C@]1(O)CC[C@@H](CS(=O)(=O)c2cc(C(=O)Nc3ccc(F)c(F)c3)ccc2Cl)CC1` [Example 195], more than 0.2 µM. On to `O=C(Nc1ccc(F)c(F)c1)c1ccc(Cl)c(S(=O)(=O)[C@H]2C3CC[C@H]2C[C@](O)(c2ncc[nH]2)C3)c1` [Example 6], for which the EC50 was less than 0.104 µM.

For `CC(C)(C1CCC(F)(F)CC1)S(=O)(=O)c1cc(C(=O)Nc2ccc(F)c(F)c2)ccc1Cl` [Example 232], the EC50 is more than 0.2 µM. `NS(=O)(=O)OC[C@]1(O)CC2CC[C@@H](C1)[C@H]2S(=O)(=O)c1cc(C(=O)Nc2cc(F)c(F)c(F)c2)ccc1Cl` [Example 3]: the EC50 is less than 0.104 µM. Still for that read-out and setting: under `O=C(Nc1cc(F)c(F)c(F)c1)c1ccc(Cl)c(S(=O)(=O)[C@H]2CC3CCC(C2)[C@]3(O)CO[C@@H]2C[C@@H](O)[C@@H](O)C2)c1` [Example 35] stands less than 0.104 µM; under `O=C(Nc1ccc(F)c(F)c1)c1ccc(Cl)c(S(=O)(=O)[C@H]2CC3CCC(C2)[C@]3(O)CNC(=O)C2CC2)c1` [Example 158], less than 0.104 µM; under `O=C(Nc1ccc(F)c(F)c1)c1ccc(Cl)c(S(=O)(=O)[C@H]2CC3CCC(C2)[C@]3(O)C(O)C(O)c2cccnc2)c1` (stereo partly shown) [Example 321], less than 0.104 µM. Same read-out and setting: under `O=C(CC1(O)CC(S(=O)(=O)c2cc(C(=O)Nc3ccc(F)c(F)c3)ccc2Cl)C1)NCCO` (stereo not shown) [Example 245] stands more than 0.2 µM.

In the case of `Cc1cccnc1C(O)[C@@]1(O)C2CC[C@H]1C[C@H](S(=O)(=O)c1cc(C(=O)Nc3ccc(F)c(F)c3)ccc1Cl)C2` (stereo partly shown) [Example 295], the EC50 is less than 0.104 µM. `O=C(Nc1ccc(F)c(F)c1)c1ccc(Cl)c(S(=O)(=O)CC2CCC(O)(C(O)CO)CC2)c1` (stereo not shown) [Example 199]: the EC50 is more than 0.2 µM. Regarding `COC(=O)CNC(=O)CC1(O)CC(S(=O)(=O)c2cc(C(=O)Nc3ccc(F)c(F)c3)ccc2Cl)C1` (stereo not shown) [Example 244], the EC50 is more than 0.2 µM.

On to `O=C(Nc1ccc(F)c(F)c1)c1ccc(Cl)c(S(=O)(=O)CC2CCC(O)(CO)CC2)c1` (stereo not shown) [Example 194], for which the EC50 was in the range of 0.1 to 0.2 µM. On the same count and under the same terms, under `CC(C)([C@H]1CC[C@H](O)CC1)S(=O)(=O)c1cc(C(=O)Nc2ccc(F)c(F)c2)ccc1Cl` [Example 236] stands more than 0.2 µM; under `COc1cc(NC(=O)c2ccc(Cl)c(S(=O)(=O)[C@H]3CC4CCC(C3)[C@@]4(C)O)c2)ccc1F` [Example 104], more than 0.2 µM; under `O=C(Nc1ccc(F)c(F)c1)c1ccc(Cl)c(S(=O)(=O)[C@H]2CC3CCC(C2)[C@]3(O)C(O)c2ncccc2F)c1` (stereo partly shown) [Example 297], less than 0.104 µM.

As to `O=C(Nc1cc(F)c(F)c(F)c1)c1ccc(Cl)c(S(=O)(=O)[C@H]2CC3CCC(C2)[C@]3(O)CNS(=O)(=O)CC(O)CO)c1` (stereo partly shown) [Example 40], the EC50 is more than 0.2 µM. As to `COC(=O)N1CCC[C@H]1C(=O)N1C2CCC1CC(S(=O)(=O)c1cc(C(=O)Nc3cc(F)c(F)c(F)c3)ccc1Cl)C2` (stereo partly shown) [Example 143], the EC50 was more than 0.2 µM. In the case of `O=C(Nc1ccc(F)c(F)c1)c1ccc(Cl)c(S(=O)(=O)[C@H]2CC3CCC(C2)[C@]3(O)C(O)Cc2cccnc2)c1` (stereo partly shown) [Example 318], the EC50 is more than 0.2 µM. Same read-out and setting: under `CC(O)[C@]1(O)CC2CC[C@@H](C1)[C@H]2S(=O)(=O)c1cc(C(=O)Nc2ccc(F)c(F)c2)ccc1Cl` (mixture of isomers) [Example 7] stands less than 0.104 µM; under `O=C(Nc1cc(F)c(F)c(F)c1)c1ccc(Cl)c(S(=O)(=O)[C@H]2CC3CCC(C2)[C@]3(O)CNC(=O)C2CC=CCC2)c1` (stereo partly shown) [Example 18], less than 0.104 µM; under `O=C(Nc1ccc(F)c(F)c1)c1ccc(Cl)c(S(=O)(=O)[C@H]2CC3CCC(C2)[C@]3(O)C(O)c2ccc(F)c[n+]2[O-])c1` (stereo partly shown) [Example 292], more than 0.2 µM. Same read-out and setting: with `O=C(Nc1ccc(F)c(F)c1)c1ccc(Cl)c(S(=O)(=O)[C@H]2CC3CCC(C2)[C@]3(O)C(=O)O)c1` [Example 205] the figure was more than 0.2 µM.

On to `C[C@H](O)[C@@H](O)COC[C@]1(O)C2CCC1C[C@@H](S(=O)(=O)c1cc(C(=O)Nc3cc(F)c(F)c(F)c3)ccc1Cl)C2` (single isomer, unassigned) [Example 164], for which the EC50 is less than 0.104 µM. As for `COC(=O)NCCC(=O)N1C2CCC1CC(S(=O)(=O)c1cc(C(=O)Nc3cc(F)c(F)c(F)c3)ccc1Cl)C2` (stereo not shown) [Example 147], the EC50 is less than 0.104 µM. Same read-out and setting: with `O=C1N[C@@H](C(=O)NC[C@]2(O)C3CCC2C[C@@H](S(=O)(=O)c2cc(C(=O)Nc4cc(F)c(F)c(F)c4)ccc2Cl)C3)CO1` [Example 95] the figure was more than 0.2 µM. For the molecule `O=C(Nc1ccc(F)c(F)c1)c1ccc(Cl)c(S(=O)(=O)[C@@H]2CC3CC[C@@H](C2)[C@@]3(O)[C@H](O)c2cc(F)ccn2)c1` [Example 299], the EC50 was less than 0.104 µM. As for `O=C(Nc1ccc(F)c(F)c1)c1ccc(Cl)c(S(=O)(=O)[C@H]2CC3CCC(C2)[C@]3(O)[C@H](O)CO)c1` (single isomer, unassigned) [Example 174], the EC50 is less than 0.104 µM. Still for that read-out and setting: with `O=C1NC(C(=O)NC[C@]2(O)C3CCC2C[C@@H](S(=O)(=O)c2cc(C(=O)Nc4cc(F)c(F)c(F)c4)ccc2Cl)C3)CO1` (stereo partly shown) [Example 97] the figure was 0.1 to 0.2 µM.

Take `COC(=O)CCNC(=O)[C@H]1C[C@H](S(=O)(=O)c2cc(C(=O)Nc3ccc(F)c(F)c3)ccc2Cl)C1` [Example 257a]: the EC50 is more than 0.2 µM. Regarding `O=C(Nc1cc(F)c(F)c(F)c1)c1ccc(Cl)c(S(=O)(=O)C2CC3CCC(C2)C3C(O)C(O)CO)c1` (stereo not shown) [Example 20], the EC50 is less than 0.104 µM. The same measure, in the same setting: under `C[C@]1(O)C2CCC1C[C@@H](S(=O)(=O)c1cccc(C(=O)Nc3cc(F)c(F)c(F)c3)c1)C2` [Example 37] stands 0.1 to 0.2 µM; under `O=C(Nc1cc(F)c(F)c(F)c1)c1ccc(Cl)c(S(=O)(=O)[C@H]2CC3CCC(C2)[C@]3(O)CNC(=O)[C@@H]2CCCO2)c1` (single isomer, unassigned) [Example 14], less than 0.104 µM; under `C[C@@H](O)COCC1(O)CC(CS(=O)(=O)c2cc(C(=O)Nc3ccc(F)c(F)c3)ccc2Cl)C1` (stereo partly shown) [Example 209], more than 0.2 µM. The same measure, in the same setting: with `O=C(Nc1ccc(F)c(F)c1)c1ccc(Cl)c(S(=O)(=O)[C@@H]2CC3CC[C@@H](C2)[C@@]3(O)Cn2ccc(=O)[nH]c2=O)c1` [Example 305] the figure was less than 0.104 µM.

As to `O=C(Nc1ccc(F)c(F)c1)c1ccc(Cl)c(S(=O)(=O)[C@H]2CC3CCC(C2)[C@]3(O)C(O)c2cccnc2)c1` (stereo partly shown) [Example 285], the EC50 was less than 0.104 µM. The same measure, in the same setting: with `C[C@]1(O)C2CCC1C[C@@H](S(=O)(=O)c1cc(C(=O)Nc3ccc(Cl)c(F)c3)ccc1Cl)C2` [Example 46] the figure was more than 0.2 µM. For the molecule `C[C@]1(O)C2CCC1C[C@@H](S(=O)(=O)c1cc(C(=O)Nc3ncccn3)ccc1Cl)C2` [Example 217], the EC50 is more than 0.2 µM. The same measure, in the same setting: with `C[C@@H](CO)NC(=O)[C@H]1C[C@H](S(=O)(=O)c2cc(C(=O)Nc3ccc(F)c(F)c3)ccc2Cl)C1` [Example 256a] the figure was more than 0.2 µM; with `NS(=O)(=O)NC[C@]1(O)C2CCC1C[C@@H](S(=O)(=O)c1cc(C(=O)Nc3cc(F)c(F)c(F)c3)ccc1Cl)C2` [Example 156], less than 0.104 µM.

In the case of `COC(=O)N[C@@H](CCC(N)=O)C(=O)NC[C@]1(O)C2CCC1C[C@@H](S(=O)(=O)c1cc(C(=O)Nc3cc(F)c(F)c(F)c3)ccc1Cl)C2` [Example 84], the EC50 is more than 0.2 µM. Same read-out and setting: with `CC(C)N(C)C[C@]1(O)C2CCC1C[C@@H](S(=O)(=O)c1cc(C(=O)Nc3ccc(F)c(F)c3)ccc1Cl)C2` [Example 304] the figure was less than 0.104 µM; with `O=C(Nc1ccc(F)c(F)c1)c1ccc(Cl)c(S(=O)(=O)[C@H]2CC3CCC(C2)[C@]3(O)C(O)c2ccccc2)c1` (stereo partly shown) [Example 283], 0.1 to 0.2 µM. On the same count and under the same terms, with `O=C(CCCO)NC[C@]1(O)C2CCC1C[C@@H](S(=O)(=O)c1cc(C(=O)Nc3cc(F)c(F)c(F)c3)ccc1Cl)C2` [Example 2] the figure was 0.1 to 0.2 µM. As to `O=C(Nc1ccc(F)c(F)c1)c1ccc(Cl)c(S(=O)(=O)[C@H]2CC3CCC(C2)[C@]3(O)[C@@H](O)c2ccccn2)c1` (single isomer, unassigned) [Example 284a], the EC50 was less than 0.104 µM. Consider `O=C(Nc1ccc(F)c(F)c1)c1ccc(Cl)c(S(=O)(=O)[C@H]2CC3CCC(C2)[C@]3(O)[C@@H](O)CO)c1` (single isomer, unassigned) [Example 175], for which the EC50 is less than 0.104 µM. The same measure, in the same setting: with `C[C@]1(O)C2CCC1C[C@@H](S(=O)(=O)c1cc(C(=O)Nc3ccc(F)c(O)c3)ccc1Cl)C2` [Example 134] the figure was more than 0.2 µM.

Turning to `COC[C@H](C)NC(=O)C[C@]1(O)C2CCC1C[C@@H](S(=O)(=O)c1cc(C(=O)Nc3cc(F)c(F)c(F)c3)ccc1Cl)C2` [Example 118], the EC50 is less than 0.104 µM. On to `O=C(Nc1ccc(F)c(F)c1)c1ccc(Cl)c(S(=O)(=O)[C@H]2CC3CCC(C2)[C@@]3(O)C(O)CN2CCCS2(=O)=O)c1` (stereo partly shown) [Example 309], for which the EC50 fell in the range of 0.1 to 0.2 µM.

Still in this experiment, the particulars now being: Hepatitis B virus, HePAD38, 120 h, read-out: HepAD38 EC50 (μM).
Take `COC(=O)N[C@@H](C)C(=O)N1C2CCC1CC(S(=O)(=O)c1cc(C(=O)Nc3cc(F)c(F)c(F)c3)ccc1Cl)C2` (single isomer, unassigned) [Example 141]: the EC50 was in the range of 0.1 to 0.2 µM.

For orientation: EC50 means the midpoint of the concentration-response curve.
